Measurements as given in patent publication US20230135152A1 (ACURASTEM INCORPORATED, priority 2020, published 2023).

How the values were obtained:
PIKFYVE [1] = molecular target: T1, PIKFYVE (Homo sapiens, UniProt Q9Y2I7); experiment: PIKFYVE assay (luciferase ADP-Glo kinase assay, Promega); type: biochemical
Outline: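 ADP generated in the kinase reaction was detected by ADP-Glo luminescence (luciferase).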

PIKFYVE [2] = molecular target: T1, PIKFYVE; experiment: Cell-based Pikfyve inhibition activity assay (EEA1 staining, mean vesicle size in BJ fibroblast cells); settings: Table 4, 4 hours treatment, 3 μM Apilimod = 100% inhibition
Experimental: BJ fibroblast cells were obtained from American Type Cell Culture (ATCC, CRL-2522). The cells were maintained in DMEM (Genesee Scientific, 25-500) supplemented with 10% fetal bovine serum (Genesee Scientific, 25-514) and 1% penicillin-streptomycin (Genesee Scientific, 25-512) at 37° C. in the atmosphere 5% CO2. BJ fibroblasts were plated into black flat clear bottom 96-well plates (Grenier, 655090) at a density of 3×10^3 per well and were allowed to attach in culture for 8-10 hours before drug treatment. Drugs were tested at eleven doses separated by 3 fold from 0.03 nM to 3000 nM in triplicates for 4 hours at 37° C. After 4 hours, treatment media was aspirated and replaced with 4% Paraformaldehyde (Electron Microscopy Science, 15714-S) and cells were fixed at room temperature for 5 minutes. 4% PFA in wells were then discarded and replaced with a blocking buffer consisting of 1×PBS with 0.1% Tween (Sigma-Aldrich, P1754-500), 5% Donkey Serum (Jackson ImmunoResearch, 017-000-121), and 1% BSA (Caisson Labs, B005-50GM) and incubated at room temperature for 30 minutes. Blocking buffer was then discarded and replaced with a primary EEA1 antibody (Fisher Scientific, BD610457) in a 1:1000 dilution and incubated at 4° C. overnight. Following overnight incubation, plates were washed with 1×PBS three times and incubated with secondary antibody Donkey anti-Mouse IgG, Alexa Fluor 555 (Invitrogen, A31570) (1:1000 dilution) for 1 hour at room temperature in the dark. Subsequently cell plates were washed with 1×PBS three times and can be stored at 4° C. if not being proceeding with imaging procedure.
Images were acquired with 20× objective (ImageXpress MicroConfocal, Molecular Devices) creating z-series of 5 planes (5 steps, […]), 16 tiles per well. Images were then analyzed using a custom CellProfiler protocol to obtain mean vesicle size. The mean vesicle size from 16 images was used as the output for each well. The mean vesicle size from 0.5% DMSO treated condition was considered as having no Pikfyve inhibition activity and the 3 μM Apilimod treated condition was considered as having 100% inhibition activity. The mean vesicle size was converted to % inhibition activity and the data was fitted to a dose-response curve using log(inhibitor) vs normalized response-variable slope using GraphPad Prism.

T1 sequence (Q9Y2I7 whole entry): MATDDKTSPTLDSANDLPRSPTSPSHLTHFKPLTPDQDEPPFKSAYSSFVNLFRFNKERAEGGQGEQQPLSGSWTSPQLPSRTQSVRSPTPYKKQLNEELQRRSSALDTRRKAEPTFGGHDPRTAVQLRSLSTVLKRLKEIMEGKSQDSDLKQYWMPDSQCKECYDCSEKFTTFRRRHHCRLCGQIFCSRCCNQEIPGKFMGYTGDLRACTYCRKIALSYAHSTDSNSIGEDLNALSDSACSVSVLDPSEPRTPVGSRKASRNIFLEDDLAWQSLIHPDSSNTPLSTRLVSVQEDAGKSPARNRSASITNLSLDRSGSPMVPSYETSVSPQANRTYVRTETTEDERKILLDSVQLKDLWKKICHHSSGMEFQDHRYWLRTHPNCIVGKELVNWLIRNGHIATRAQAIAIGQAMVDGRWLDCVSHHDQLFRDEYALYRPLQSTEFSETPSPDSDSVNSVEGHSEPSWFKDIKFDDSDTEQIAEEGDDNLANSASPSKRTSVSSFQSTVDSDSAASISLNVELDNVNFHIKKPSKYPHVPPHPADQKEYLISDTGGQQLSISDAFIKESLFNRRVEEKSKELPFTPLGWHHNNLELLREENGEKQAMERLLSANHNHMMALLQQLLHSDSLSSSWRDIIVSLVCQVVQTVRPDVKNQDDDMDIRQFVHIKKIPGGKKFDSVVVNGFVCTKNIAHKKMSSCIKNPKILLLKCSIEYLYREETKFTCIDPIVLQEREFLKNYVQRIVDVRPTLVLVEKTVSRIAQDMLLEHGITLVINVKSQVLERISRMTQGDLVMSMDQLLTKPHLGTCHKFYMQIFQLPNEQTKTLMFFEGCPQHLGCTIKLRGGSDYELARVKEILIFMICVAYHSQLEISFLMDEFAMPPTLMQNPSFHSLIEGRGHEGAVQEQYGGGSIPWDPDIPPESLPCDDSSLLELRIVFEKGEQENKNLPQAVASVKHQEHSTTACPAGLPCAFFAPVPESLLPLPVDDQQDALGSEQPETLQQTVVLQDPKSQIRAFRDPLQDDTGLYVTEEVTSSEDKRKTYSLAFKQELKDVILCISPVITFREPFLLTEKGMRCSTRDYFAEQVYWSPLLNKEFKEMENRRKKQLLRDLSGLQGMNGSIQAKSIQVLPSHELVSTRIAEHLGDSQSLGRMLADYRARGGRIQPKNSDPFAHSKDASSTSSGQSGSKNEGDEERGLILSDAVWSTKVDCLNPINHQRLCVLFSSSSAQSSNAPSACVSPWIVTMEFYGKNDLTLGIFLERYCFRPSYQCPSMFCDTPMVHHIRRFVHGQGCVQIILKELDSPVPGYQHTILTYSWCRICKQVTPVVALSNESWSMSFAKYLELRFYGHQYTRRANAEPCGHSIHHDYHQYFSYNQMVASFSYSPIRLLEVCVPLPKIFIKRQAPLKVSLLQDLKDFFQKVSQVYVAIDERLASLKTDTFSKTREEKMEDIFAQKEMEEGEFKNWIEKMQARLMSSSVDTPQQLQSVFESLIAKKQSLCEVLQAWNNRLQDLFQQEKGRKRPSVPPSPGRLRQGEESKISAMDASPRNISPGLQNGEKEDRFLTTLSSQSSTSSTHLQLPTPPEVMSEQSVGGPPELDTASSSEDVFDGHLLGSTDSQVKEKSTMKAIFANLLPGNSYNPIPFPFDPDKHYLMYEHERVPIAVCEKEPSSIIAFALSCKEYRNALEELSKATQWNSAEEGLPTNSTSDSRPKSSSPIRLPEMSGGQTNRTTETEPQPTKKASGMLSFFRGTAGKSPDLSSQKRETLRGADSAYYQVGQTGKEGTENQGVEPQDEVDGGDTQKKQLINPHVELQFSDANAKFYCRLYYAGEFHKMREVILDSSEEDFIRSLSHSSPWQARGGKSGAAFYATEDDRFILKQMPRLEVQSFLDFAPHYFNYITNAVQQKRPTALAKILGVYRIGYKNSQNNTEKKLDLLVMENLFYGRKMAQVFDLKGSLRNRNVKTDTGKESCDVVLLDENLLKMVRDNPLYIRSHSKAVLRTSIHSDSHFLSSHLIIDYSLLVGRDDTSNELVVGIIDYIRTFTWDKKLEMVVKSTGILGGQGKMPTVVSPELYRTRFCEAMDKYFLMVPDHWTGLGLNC

| IC50 (PIKFYVE [1]; Table 3) [nM] | EC50 (PIKFYVE [2]) [nM] | IC50 (PIKFYVE [1]; Table 2) [nM] | SMILES |
| --- | --- | --- | --- |
| 10 to 100 | 20 to 100 |  | CO[C@H](CO)c1nc(N2CCOCC2)cc(-n2ccc(-c3c[nH]c4ncccc34)n2)n1 [Compound 292, (S)-2-(4-(3-(1H-pyrrolo[2,3-b]pyridin-3-yl)-1H-pyrazol-1-yl)-6-morpholinopyrimidin-2-yl)-2-methoxyethan-1-ol] |
| 3 to 10 | 100 to 500 |  | CO[C@H](CO)c1nc(N2CCOCC2)cc(-n2nc(-c3cccc(C)c3)cc2C)n1 (single isomer, unassigned) [Compound 224] |
| < 3 | 20 to 100 |  | Cn1cc(CCOc2nc(N3CCOCC3)cc(-n3nc(-c4ccccc4)cc3CO)n2)cn1 [Compound 233, (1-(2-(2-(1-methyl-1H-pyrazol-4-yl)ethoxy)-6-morpholinopyrimidin-4-yl)-3-phenyl-1H-pyrazol-5-yl)methanol] |
| < 3 | 20 to 100 |  | COCc1cc(-c2ccccc2)nn1-c1cc(N2CCOCC2)nc(OCCc2cnn(C)c2)n1 [Compound 217, 4-(6-(5-(methoxymethyl)-3-phenyl-1H-pyrazol-1-yl)-2-(2-(1-methyl-1H-pyrazol-4-yl)ethoxy)pyrimidin-4-yl)morpholine] |
| 3 to 10 | 100 to 500 |  | Cc1cccc(-c2ccn(-c3cc(N4CCOCC4)nc(OCCO)n3)n2)c1 [Compound 121, 2-((4-morpholino-6-(3-(m-tolyl)-1H-pyrazol-1-yl)pyrimidin-2-yl)oxy)ethan-1-ol] |
| 100 to 5000 | > 5000 |  | Cn1cc(CCOc2nc(N3CCOCC3)cc(-n3ccc(C(=O)O)n3)n2)cn1 [Compound 178, 1-(2-(2-(1-methyl-1H-pyrazol-4-yl)ethoxy)-6-morpholinopyrimidin-4-yl)-1H-pyrazole-3-carboxylic acid] |
| 3 to 10 | > 5000 |  | Cc1cccc(-c2ccn(-c3cc(N4CCOCC4)nc([C@@H]4CCCO4)n3)n2)c1 (single isomer, unassigned) [Compound 328] |
| 3 to 10 | 20 to 100 |  | Cc1cccc(-c2ccn(-c3cc(N4CCOCC4)nc(NCCO)n3)n2)c1 [Compound 208, 2-((4-morpholino-6-(3-(m-tolyl)-1H-pyrazol-1-yl)pyrimidin-2-yl)amino)ethan-1-ol] |
| < 3 | 20 to 100 |  | Cn1cc(CCOc2nc(N3CCOCC3)cc(-n3ccc(-c4cccc(F)c4)n3)n2)cn1 [Compound 195, 4-(6-(3-(3-fluorophenyl)-1H-pyrazol-1-yl)-2-(2-(1-methyl-1H-pyrazol-4-yl)ethoxy)pyrimidin-4-yl)morpholine] |
| 3 to 10 | 500 to 5000 |  | CO[C@@H](CO)c1nc(N2CCOCC2)cc(-n2ccc(-c3cn(C)c4ccccc34)n2)n1 (single isomer, unassigned) [Compound 321] |
| 3 to 10 | 500 to 5000 |  | Cn1cc(CCOc2nc(N3CCOCC3)cc(-n3ccc(COc4ccccc4)n3)n2)cn1 [Compound 128, 4-(2-(2-(1-methyl-1H-pyrazol-4-yl)ethoxy)-6-(3-(phenoxymethyl)-1H-pyrazol-1-yl)pyrimidin-4-yl)morpholine] |
| 3 to 10 | 100 to 500 |  | Cn1cc(CCOc2nc(N3CCOCC3)cc(-n3ccc(OCc4ccccc4F)n3)n2)cn1 [Compound 129, 4-(6-(3-((2-fluorobenzyl)oxy)-1H-pyrazol-1-yl)-2-(2-(1-methyl-1H-pyrazol-4-yl)ethoxy)pyrimidin-4-yl)morpholine] |
|  | 100 to 500 | < 5 | Cc1cccc(-c2ccn(-c3cc(N4CCOCC4)nc(C)n3)n2)c1 [Compound 81, 4-(2-methyl-6-(3-(m-tolyl)-1H-pyrazol-1-yl)pyrimidin-4-yl)morpholine] |
| < 3 | 100 to 500 |  | Cc1cccc(-c2ccn(-c3cc(N4CCOCC4)nc(CCc4cnn(C)c4)n3)n2)c1 [Compound 223, 4-(2-(2-(1-methyl-1H-pyrazol-4-yl)ethyl)-6-(3-(m-tolyl)-1H-pyrazol-1-yl)pyrimidin-4-yl)morpholine] |
| 3 to 10 | 500 to 5000 |  | Cc1cccc(-c2ccn(-c3cc(N4CCOCC4)nc([C@@H](CO)OC(F)F)n3)n2)c1 (single isomer, unassigned) [Compound 309] |
| < 3 | 100 to 500 |  | Cc1cccc(-c2ccn(-c3cc(N4CCOCC4)nc(OCc4ccn(CCN(C)C)n4)n3)n2)c1 [Compound 238, N,N-dimethyl-2-(3-(((4-morpholino-6-(3-(m-tolyl)-1H-pyrazol-1-yl)pyrimidin-2-yl)oxy)methyl)-1H-pyrazol-1-yl)ethan-1-amine] |
| < 3 | < 20 |  | Cc1cc(-c2c[nH]c3ccccc23)nn1-c1cc(N2CCOCC2)nc(C2COCCO2)n1 (single isomer, unassigned) [Compound 344] |
| 10 to 100 | 500 to 5000 |  | CO[C@@H](CO)c1nc(N2CCOCC2)cc(-n2ccc(-c3cccc4[nH]ccc34)n2)n1 [Compound 269, (R)-2-(4-(3-(1H-indol-4-yl)-1H-pyrazol-1-yl)-6-morpholinopyrimidin-2-yl)-2-methoxyethan-1-ol] |
| < 3 | 20 to 100 |  | Cn1cc(CCOc2nc(N3CCOCC3)cc(-n3nc(-c4ccccc4)cc3C3CC3)n2)cn1 [Compound 216, 4-(6-(5-cyclopropyl-3-phenyl-1H-pyrazol-1-yl)-2-(2-(1-methyl-1H-pyrazol-4-yl)ethoxy)pyrimidin-4-yl)morpholine] |
| 3 to 10 | 500 to 5000 |  | COC(C)(CO)c1nc(N2CCOCC2)cc(-n2ccc(-c3cccc(C)c3)n2)n1 (stereo not drawn) [Compound 226, 2-methoxy-2-(4-morpholino-6-(3-(m-tolyl)-1H-pyrazol-1-yl)pyrimidin-2-yl)propan-1-ol] |
| 10 to 100 | 500 to 5000 |  | Cn1cc(CCOc2nc(N3CCOCC3)cc(-n3ccc(C4CC4)n3)n2)cn1 [Compound 123, 4-(6-(3-cyclopropyl-1H-pyrazol-1-yl)-2-(2-(1-methyl-1H-pyrazol-4-yl)ethoxy)pyrimidin-4-yl)morpholine] |
| < 3 | < 20 |  | Cc1cccc(-c2cc(N3CCOCC3)n(-c3cc(N4CCOCC4)nc(OCCc4cnn(C)c4)n3)n2)c1 [Compound 237, 4-(2-(2-(1-methyl-1H-pyrazol-4-yl)ethoxy)-6-(5-morpholino-3-(m-tolyl)-1H-pyrazol-1-yl)pyrimidin-4-yl)morpholine] |
| 3 to 10 | 100 to 500 |  | Cc1cccc(-c2ccn(-c3cc(N4CCOCC4)nc([C@H]4C[C@@H](O)CO4)n3)n2)c1 [Compound 331, (3R,5R)-5-(4-morpholino-6-(3-(m-tolyl)-1H-pyrazol-1-yl)pyrimidin-2-yl)tetrahydrofuran-3-ol] |
|  | 500 to 5000 | 5 to 100 | COCc1nc(N2CCOCC2)cc(-n2ccc(-c3ccccc3)n2)n1 [Compound 69] |
| < 3 | 100 to 500 |  | CN(C)Cc1cccc(-c2ccn(-c3cc(N4CCOCC4)nc(OCCc4cnn(C)c4)n3)n2)c1 [Compound 193, N,N-dimethyl-1-(3-(1-(2-(2-(1-methyl-1H-pyrazol-4-yl)ethoxy)-6-morpholinopyrimidin-4-yl)-1H-pyrazol-3-yl)phenyl)methanamine] |
|  | 500 to 5000 | 5 to 100 | Cc1cccc(-c2ccn(-c3cc(N4CCOCC4)nc(C(F)(F)F)n3)n2)c1 [Compound 82] |
| < 3 | < 20 |  | CO[C@@H](C)c1cccc(-c2ccn(-c3cc(N4CCOCC4)nc(OCCc4cnn(C)c4)n3)n2)c1 (single isomer, unassigned) [Compound 341] |
